From the NIST ThermoML archive (doi:10.1016/j.jct.2019.02.004) come the findings set out here.

For data set [1] the following is noted: Crystal; DTA.
Data set [2] can be described thus: Molar enthalpy of transition or fusion. The note with it: Crystal; DSC.

Structures are written as SMILES. ± gives the expanded uncertainty stated by the source.

For `CC(=O)Nc1ccc(Cl)cc1` [N(4-chlorophenyl)ethanamide], the Normal melting temperature in data set [1] was found to be 175.7 ± 1.1 °C. For the same compound, the “Molar enthalpy of transition or fusion” value in data set [2] stood at 27.1 ± 0.98 kJ/mol.
